# From article PMC4767141, “Discovery of Potent, Orally Bioavailable, Small-Molecule Inhibitors of WNT Signaling from a Cell-Based Pathway Screen” (Journal of Medicinal Chemistry, 2015)
# Assays:
# TP (h) (TXA2/PGH2) = target: T1, TP (h) (TXA2/PGH2) (Homo sapiens, UniProt P21731); test: CEREP binding panel; conditions: antagonist radioligand, read-out: % Inhibition of Control Specific Binding
# T1 construct: purchased Millipore KinaseProfiler (kinases); Cerep (receptors and ion channels)
# Cl- channel (GABA-gated) = test: CEREP binding panel; conditions: 10 μM, antagonist radioligand
# GSK3BETA = target: T2, GSK3BETA (Homo sapiens, UniProt P49841); test: Millipore kinase panel; assay type: biochemical; conditions: read-out: % Control
# T2 construct: purchased Millipore
# EGFR(L858R) = target: T3, EGFR(L858R) (Homo sapiens, UniProt P00533, L858R); test: Millipore kinase panel; assay type: biochemical; conditions: read-out: % Control
# T3 construct: purchased Millipore KinaseProfiler (kinases); Cerep (receptors and ion channels)
# EGFR(L861Q) = target: T4, EGFR(L861Q) (Homo sapiens, UniProt P00533, L861Q); test: Millipore kinase panel; assay type: biochemical; conditions: read-out: % Control
# T4 construct: purchased Millipore KinaseProfiler (kinases); Cerep (receptors and ion channels)
# PKBALPHA = target: T5, PKBALPHA (Homo sapiens, UniProt P31749); test: Millipore kinase panel; assay type: biochemical; conditions: read-out: % Control
# T5 construct: purchased Millipore KinaseProfiler (kinases); Cerep (receptors and ion channels)
# PKCEPSILON = target: T6, PKCEPSILON (Homo sapiens, UniProt Q02156); test: Millipore kinase panel; assay type: biochemical; conditions: read-out: % Control
# T6 construct: purchased Millipore KinaseProfiler (kinases); Cerep (receptors and ion channels)
# CK1GAMMA3 = target: T7, CK1GAMMA3 (Homo sapiens, UniProt Q9Y6M4); test: Millipore kinase panel; assay type: biochemical; conditions: read-out: % Control
# T7 construct: purchased Millipore KinaseProfiler (kinases); Cerep (receptors and ion channels)
# CAMKIIGAMMA = target: T8, CAMKIIGAMMA (Homo sapiens, UniProt Q13555); test: Millipore kinase panel; assay type: biochemical; conditions: read-out: % Control
# T8 construct: purchased Millipore KinaseProfiler (kinases); Cerep (receptors and ion channels)
# MER = target: T9, MER (Homo sapiens, UniProt Q12866); test: Millipore kinase panel; assay type: biochemical; conditions: read-out: % Control
# T9 construct: purchased Millipore KinaseProfiler (kinases); Cerep (receptors and ion channels)
# PDGFRALPHA(D842V) = target: T10, PDGFRALPHA(D842V) (Homo sapiens, UniProt P16234, D842V); test: Millipore kinase panel; assay type: biochemical; conditions: read-out: % Control
# T10 construct: purchased Millipore KinaseProfiler (kinases); Cerep (receptors and ion channels)
# CHK2(I157T) = target: T11, CHK2(I157T) (Homo sapiens, UniProt O96017, I157T); test: Millipore kinase panel; assay type: biochemical; conditions: read-out: % Control
# T11 construct: purchased Millipore KinaseProfiler (kinases); Cerep (receptors and ion channels)
# FGFR2(N549H) = target: T12, FGFR2(N549H) (Homo sapiens, UniProt P21802, N549H); test: Millipore kinase panel; assay type: biochemical; conditions: read-out: % Control
# T12 construct: purchased Millipore KinaseProfiler (kinases); Cerep (receptors and ion channels)
# ABL (Q252H) = target: T13, ABL (Q252H) (Homo sapiens, UniProt P00519, Q252H); test: Millipore kinase panel; assay type: biochemical; conditions: read-out: % Control
# T13 construct: purchased Millipore KinaseProfiler (kinases); Cerep (receptors and ion channels)
# TIE2(R849W) = target: T14, TIE2(R849W) (Homo sapiens, UniProt Q02763, R849W); test: Millipore kinase panel; assay type: biochemical; conditions: read-out: % Control
# T14 construct: purchased Millipore KinaseProfiler (kinases); Cerep (receptors and ion channels)
# MTOR/FKBP12 = target: T15, MTOR/FKBP12 (Homo sapiens, UniProt P42345); test: Millipore kinase panel; assay type: biochemical; conditions: read-out: % Control
# T15 construct: purchased Millipore KinaseProfiler (kinases); Cerep (receptors and ion channels)
# CK1(Y) = test: Millipore kinase panel; assay type: biochemical; conditions: 1 μM, ATP at Km
# Protocol: (§1) Supplementary Table S3. Activity of compound 44 tested 1 μM across a panel of 209 non-mutated kinases (Millipore Panel: data expressed as percentage control response versus each kinase tested at its respective Km for ATP). No inhibition was considered sufficient to warrant follow-up with IC50 determination.
# (§2) % Inhibition of % Inhibition of […]
# (§3) α1 (non-selective) (antagonist radioligand) 8 NTS1 (NT1) (h) (agonist radioligand) -8 α2 (non-selective) (antagonist radioligand) 0 δ2 (DOP) (h) (agonist radioligand) 22 β1 (h) (agonist radioligand) 5 κ (KOP) (agonist radioligand) 72 […]
# (§4) AT1 (h) (antagonist radioligand) 8 NOP (ORL1) (h) (agonist radioligand) 3 BZD (central) (agonist radioligand) 18 TP (h) (TXA2/PGH2) (antagonist radioligand) NT B2 (h) (agonist radioligand) 0 5-HT1A (h) (agonist radioligand) 19 […]
# (§5) CCK1 (CCKA) (h) (agonist radioligand) 2 5-HT2A (h) (antagonist radioligand) 1 D1 (h) (antagonist radioligand) 7 5-HT2B (h) (agonist radioligand) 6
# (§6) D2S (h) (antagonist radioligand) 5 5-HT3 (h) (antagonist radioligand) 9 ETA (h) (agonist radioligand) -9 5-HT5a (h) (agonist radioligand) 1
# (§7) GABA (non-selective) (agonist radioligand) 5 5-HT6 (h) (agonist radioligand) 3 GAL2 (h) (agonist radioligand) 2 5-HT7 (h) (agonist radioligand) 1
# (§8) CXCR2 (IL-8B) (h) (agonist radioligand) -6 sst (non-selective) (agonist radioligand) 4 CCR1 (h) (agonist radioligand) -4 VPAC1 (VIP1) (h) (agonist radioligand) 0 H1 (h) (antagonist radioligand) 16 V1a (h) (agonist radioligand) -7
# (§9) H2 (h) (antagonist radioligand) -2 Ca2+ channel (L, verapamil site) (phenylalkylamine) (antagonist radioligand) 7 MC4 (h) (agonist radioligand) 4 KV channel (antagonist radioligand) -13 MT1 (ML1A) (h) (agonist radioligand) 34 SKCa channel (antagonist radioligand) 3 M1 (h) (antagonist radioligand) 21 Na+ channel (site 2) (antagonist radioligand) 29 M2 (h) (antagonist radioligand) 38 Cl- channel (GABA-gated) (antagonist radioligand) 31 M3 (h) (antagonist radioligand) 46 norepinephrine transporter (h) (antagonist radioligand) 14 NK2 (h) (agonist radioligand) -17 dopamine transporter (h) (antagonist radioligand) 40 5-HT transporter (h) (antagonist radioligand) 70 […]
# (§10) receptors, ion channels and enzymes (CEREP). Results are expressed as percent inhibition of control specific binding. […]
# (§11) kinases (Millipore Panel: data expressed as percentage control response versus each kinase tested […]
# (§12) at its respective Km for ATP).
# (§13) Supplementary Figure S1. Dose-dependent reduction of endogenous cMYC mRNA measured by RT-PCR (n = 8) after treatment of 7dF3 cells with 74 at the stated concentration for 2 h […]
# [1] = system: PI3 KINASE (P110A(E542K)/P85A); test: Millipore kinase panel; assay type: biochemical; conditions: 1 μM, ATP at Km
# Protocol: as §1, §2, §3, §4, §5, §6, §7, §8, §9, §10, §11, §12, §13
# [2] = system: PI3 KINASE (P110A(E545K)/P85A); test: Millipore kinase panel; assay type: biochemical; conditions: 1 μM, ATP at Km
# Protocol: as §1, §2, §3, §4, §5, §6, §7, §8, §9, §10, §11, §12, §13
# [3] = system: PI3 KINASE (P110A(H1047R)/P85A); test: Millipore kinase panel; assay type: biochemical; conditions: 1 μM, ATP at Km
# Protocol: as §1, §2, §3, §4, §5, §6, §7, §8, §9, §10, §11, §12, §13
# PI3 KINASE (P110A/P65A) = test: Millipore kinase panel; assay type: biochemical; conditions: 1 μM, ATP at Km
# Protocol: as §1, §2, §3, §4, §5, §6, §7, §8, §9, §10, §11, §12, §13
# PI3 KINASE (P110B/P85A) = test: Millipore kinase panel; assay type: biochemical; conditions: 1 μM, ATP at Km
# Protocol: as §1, §2, §3, §4, §5, §6, §7, §8, §9, §10, §11, §12, §13
# PI3 KINASE (P110D/P85A) = test: Millipore kinase panel; assay type: biochemical; conditions: 1 μM, ATP at Km
# Protocol: as §1, §2, §3, §4, §5, §6, §7, §8, §9, §10, §11, §12, §13
# PI3 KINASE (P65A) = test: Millipore kinase panel; assay type: biochemical; conditions: 1 μM, ATP at Km
# Protocol: as §1, §2, §3, §4, §5, §6, §7, §8, §9, §10, §11, §12, §13
# PI3 KINASE (P85A) = test: Millipore kinase panel; assay type: biochemical; conditions: 1 μM, ATP at Km
# Protocol: as §1, §2, §3, §4, §5, §6, §7, §8, §9, §10, §11, §12, §13
# T2 sequence (P49841 whole entry): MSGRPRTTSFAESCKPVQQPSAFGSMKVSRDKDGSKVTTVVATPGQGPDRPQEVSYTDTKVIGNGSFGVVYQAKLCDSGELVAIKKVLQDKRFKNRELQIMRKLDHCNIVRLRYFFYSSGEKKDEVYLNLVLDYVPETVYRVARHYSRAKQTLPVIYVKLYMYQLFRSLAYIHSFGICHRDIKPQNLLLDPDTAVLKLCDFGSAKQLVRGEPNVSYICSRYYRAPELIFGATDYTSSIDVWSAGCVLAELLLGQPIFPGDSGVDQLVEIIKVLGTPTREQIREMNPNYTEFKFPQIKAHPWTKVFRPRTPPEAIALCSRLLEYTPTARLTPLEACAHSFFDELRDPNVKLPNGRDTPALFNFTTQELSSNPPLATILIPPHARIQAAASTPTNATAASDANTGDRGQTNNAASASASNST
# T3 sequence (P00533 25-1210 L858R): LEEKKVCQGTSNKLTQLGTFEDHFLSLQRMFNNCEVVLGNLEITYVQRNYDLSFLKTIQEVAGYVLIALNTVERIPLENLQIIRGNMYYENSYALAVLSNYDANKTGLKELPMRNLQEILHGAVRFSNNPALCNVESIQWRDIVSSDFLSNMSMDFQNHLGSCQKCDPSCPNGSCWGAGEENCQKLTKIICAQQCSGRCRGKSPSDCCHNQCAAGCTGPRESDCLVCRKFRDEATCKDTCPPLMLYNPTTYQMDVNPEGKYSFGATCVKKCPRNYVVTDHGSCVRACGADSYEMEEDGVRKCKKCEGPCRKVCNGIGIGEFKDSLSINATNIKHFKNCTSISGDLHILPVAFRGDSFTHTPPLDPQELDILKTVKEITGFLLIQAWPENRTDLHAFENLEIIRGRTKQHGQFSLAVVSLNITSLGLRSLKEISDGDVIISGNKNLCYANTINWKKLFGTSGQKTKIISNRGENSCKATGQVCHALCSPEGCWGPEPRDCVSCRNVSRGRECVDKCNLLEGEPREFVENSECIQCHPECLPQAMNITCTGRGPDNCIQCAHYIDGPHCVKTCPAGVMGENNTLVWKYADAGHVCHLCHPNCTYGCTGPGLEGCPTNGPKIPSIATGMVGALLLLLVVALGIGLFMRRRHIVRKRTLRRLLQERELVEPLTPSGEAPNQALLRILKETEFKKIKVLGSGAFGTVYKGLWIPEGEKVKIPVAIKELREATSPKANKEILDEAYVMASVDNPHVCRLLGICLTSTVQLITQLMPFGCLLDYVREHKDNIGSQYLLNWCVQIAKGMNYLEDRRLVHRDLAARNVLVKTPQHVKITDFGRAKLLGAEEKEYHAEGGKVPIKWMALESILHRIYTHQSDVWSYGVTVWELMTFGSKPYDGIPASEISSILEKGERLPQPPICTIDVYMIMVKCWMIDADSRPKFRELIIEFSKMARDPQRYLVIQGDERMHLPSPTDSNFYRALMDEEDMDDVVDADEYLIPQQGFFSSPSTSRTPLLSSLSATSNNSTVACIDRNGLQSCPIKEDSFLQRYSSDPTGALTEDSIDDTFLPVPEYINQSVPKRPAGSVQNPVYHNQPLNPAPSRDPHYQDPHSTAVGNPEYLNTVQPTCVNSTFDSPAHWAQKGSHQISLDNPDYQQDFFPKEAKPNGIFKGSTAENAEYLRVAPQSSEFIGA
# T14 sequence (Q02763 23-1124 R849W): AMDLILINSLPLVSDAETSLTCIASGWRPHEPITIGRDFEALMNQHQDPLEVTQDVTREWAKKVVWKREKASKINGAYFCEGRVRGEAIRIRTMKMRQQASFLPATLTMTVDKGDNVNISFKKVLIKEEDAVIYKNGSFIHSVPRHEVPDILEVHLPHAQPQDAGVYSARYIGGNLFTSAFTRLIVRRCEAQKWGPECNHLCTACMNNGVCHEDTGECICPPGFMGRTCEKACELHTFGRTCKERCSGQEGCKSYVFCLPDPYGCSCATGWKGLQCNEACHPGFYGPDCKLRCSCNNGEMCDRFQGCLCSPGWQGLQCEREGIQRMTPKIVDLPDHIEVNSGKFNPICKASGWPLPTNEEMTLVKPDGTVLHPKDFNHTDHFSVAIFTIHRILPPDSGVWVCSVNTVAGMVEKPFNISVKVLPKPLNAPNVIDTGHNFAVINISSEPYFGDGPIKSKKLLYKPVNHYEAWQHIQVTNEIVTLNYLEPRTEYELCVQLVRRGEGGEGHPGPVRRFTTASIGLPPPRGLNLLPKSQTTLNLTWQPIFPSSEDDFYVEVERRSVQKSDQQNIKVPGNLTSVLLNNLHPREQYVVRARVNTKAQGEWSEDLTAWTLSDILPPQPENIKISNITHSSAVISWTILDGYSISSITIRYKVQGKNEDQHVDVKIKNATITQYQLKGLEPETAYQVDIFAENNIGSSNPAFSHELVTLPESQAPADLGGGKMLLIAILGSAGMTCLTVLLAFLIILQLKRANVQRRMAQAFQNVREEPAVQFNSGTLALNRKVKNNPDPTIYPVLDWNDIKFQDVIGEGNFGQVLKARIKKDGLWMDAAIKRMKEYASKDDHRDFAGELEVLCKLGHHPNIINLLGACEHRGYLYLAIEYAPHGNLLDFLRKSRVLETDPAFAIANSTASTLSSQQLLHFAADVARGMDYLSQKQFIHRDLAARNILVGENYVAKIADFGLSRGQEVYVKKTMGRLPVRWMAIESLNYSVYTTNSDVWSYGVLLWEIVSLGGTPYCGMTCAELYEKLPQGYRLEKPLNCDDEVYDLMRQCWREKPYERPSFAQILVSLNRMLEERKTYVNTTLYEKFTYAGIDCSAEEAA
# T12 sequence (P21802 22-821 N549H): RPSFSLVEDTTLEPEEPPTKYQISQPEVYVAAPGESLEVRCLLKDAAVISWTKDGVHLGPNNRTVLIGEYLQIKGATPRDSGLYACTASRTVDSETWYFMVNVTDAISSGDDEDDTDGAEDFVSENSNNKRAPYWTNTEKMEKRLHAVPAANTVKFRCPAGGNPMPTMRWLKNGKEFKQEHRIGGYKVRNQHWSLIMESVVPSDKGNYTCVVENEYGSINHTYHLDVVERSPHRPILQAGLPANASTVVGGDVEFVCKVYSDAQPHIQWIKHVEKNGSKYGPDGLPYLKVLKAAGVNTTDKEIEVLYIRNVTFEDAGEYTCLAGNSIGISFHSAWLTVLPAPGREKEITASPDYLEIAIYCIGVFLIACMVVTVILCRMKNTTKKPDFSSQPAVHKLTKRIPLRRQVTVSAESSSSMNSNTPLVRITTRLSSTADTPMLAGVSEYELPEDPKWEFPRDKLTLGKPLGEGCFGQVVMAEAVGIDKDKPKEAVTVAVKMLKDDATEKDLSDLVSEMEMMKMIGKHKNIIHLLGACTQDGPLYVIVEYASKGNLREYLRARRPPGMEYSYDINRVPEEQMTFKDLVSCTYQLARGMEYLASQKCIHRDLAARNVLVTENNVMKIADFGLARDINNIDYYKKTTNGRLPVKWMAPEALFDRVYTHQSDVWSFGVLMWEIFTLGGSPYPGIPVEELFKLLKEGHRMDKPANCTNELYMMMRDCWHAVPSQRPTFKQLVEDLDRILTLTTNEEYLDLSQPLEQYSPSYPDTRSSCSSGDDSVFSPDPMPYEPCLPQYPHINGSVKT
# T8 sequence (Q13555 whole entry): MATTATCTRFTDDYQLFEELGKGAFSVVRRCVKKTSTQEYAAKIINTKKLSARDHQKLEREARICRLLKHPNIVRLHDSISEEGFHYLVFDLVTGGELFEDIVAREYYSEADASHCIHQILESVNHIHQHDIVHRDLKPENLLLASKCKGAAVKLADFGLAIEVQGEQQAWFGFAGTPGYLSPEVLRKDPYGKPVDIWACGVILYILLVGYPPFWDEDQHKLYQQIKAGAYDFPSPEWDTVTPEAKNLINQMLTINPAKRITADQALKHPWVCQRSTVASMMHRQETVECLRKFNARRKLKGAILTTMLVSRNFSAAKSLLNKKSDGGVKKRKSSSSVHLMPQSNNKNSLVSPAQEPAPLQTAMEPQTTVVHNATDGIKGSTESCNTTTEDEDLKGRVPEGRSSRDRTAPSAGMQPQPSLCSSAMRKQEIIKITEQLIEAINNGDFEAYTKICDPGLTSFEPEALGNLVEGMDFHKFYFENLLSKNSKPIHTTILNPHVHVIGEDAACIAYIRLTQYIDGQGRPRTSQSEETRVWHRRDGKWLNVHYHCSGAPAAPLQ
# T6 sequence (Q02156 whole entry): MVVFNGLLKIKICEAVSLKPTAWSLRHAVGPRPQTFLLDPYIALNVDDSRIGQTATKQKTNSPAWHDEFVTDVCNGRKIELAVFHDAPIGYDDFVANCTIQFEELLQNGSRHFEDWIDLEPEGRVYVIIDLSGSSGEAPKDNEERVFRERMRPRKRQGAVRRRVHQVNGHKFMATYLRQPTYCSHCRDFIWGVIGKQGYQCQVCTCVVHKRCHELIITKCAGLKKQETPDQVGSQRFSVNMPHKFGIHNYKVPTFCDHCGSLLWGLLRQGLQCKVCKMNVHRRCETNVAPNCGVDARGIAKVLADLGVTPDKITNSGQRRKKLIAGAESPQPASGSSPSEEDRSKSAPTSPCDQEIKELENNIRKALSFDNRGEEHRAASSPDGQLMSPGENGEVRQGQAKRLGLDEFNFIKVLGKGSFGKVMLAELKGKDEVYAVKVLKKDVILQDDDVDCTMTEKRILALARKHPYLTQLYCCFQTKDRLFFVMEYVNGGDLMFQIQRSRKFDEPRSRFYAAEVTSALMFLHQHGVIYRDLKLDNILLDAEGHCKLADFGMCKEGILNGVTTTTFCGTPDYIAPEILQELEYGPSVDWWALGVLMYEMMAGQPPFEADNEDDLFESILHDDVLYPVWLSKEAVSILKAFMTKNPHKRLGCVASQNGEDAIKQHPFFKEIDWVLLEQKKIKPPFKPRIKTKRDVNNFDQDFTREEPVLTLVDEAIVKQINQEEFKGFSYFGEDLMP
smiles,measurement,setting,value
"O=C1NCCC12CCN(c1c(Cl)cncc1-c1ccc(N3CCOCC3)cc1)CC2 [Compound 44, 8-(3-Chloro-5-(4-morpholin-4-ylphenyl)pyridin-4-yl)-2,8-diazaspiro[4.5]decan-1-one]",inhibition at 10 µM,TP (h) (TXA2/PGH2),14%
same,% Inhibition of Control Specific Binding,Cl- channel (GABA-gated),14%
same,remaining activity at 1 µM,GSK3BETA,-25%
"Cn1cc(-c2ccc(-c3cncc(Cl)c3N3CCC4(CCNC4=O)CC3)cc2)cn1 [Compound 74, 8-(3-Chloro-5-(4-(1-methyl-1H-pyrazol-4-yl)phenyl)pyridin-4-yl)-2,8-diazaspiro[4.5]decan-1-one]",remaining activity at 1 µM,EGFR(L858R),1%
same,remaining activity at 1 µM,EGFR(L861Q),0%
same,remaining activity at 1 µM,PKBALPHA,2%
same,remaining activity at 1 µM,PKCEPSILON,-22%
same,remaining activity at 1 µM,CK1GAMMA3,1%
same,remaining activity at 1 µM,CAMKIIGAMMA,1%
same,remaining activity at 1 µM,MER,-6%
same,remaining activity at 1 µM,PDGFRALPHA(D842V),-4%
same,remaining activity at 1 µM,CHK2(I157T),2%
same,remaining activity at 1 µM,FGFR2(N549H),1%
same,remaining activity at 1 µM,ABL (Q252H),-1%
same,remaining activity at 1 µM,TIE2(R849W),-6%
same,remaining activity at 1 µM,MTOR/FKBP12,11%
same,% Control,CK1(Y),-4%
same,% Control,[1],0%
same,% Control,[2],-1%
same,% Control,[3],2%
same,% Control,PI3 KINASE (P110A/P65A),0%
same,% Control,PI3 KINASE (P110B/P85A),-1%
same,% Control,PI3 KINASE (P110D/P85A),0%
same,% Control,PI3 KINASE (P65A),0%
same,% Control,PI3 KINASE (P85A),-1%
